Results reported in ChEMBL document CHEMBL4330132, “5-Keto-3-cyano-2,4-diaminothiophenes as selective maternal embryonic leucine zipper kinase inhibitors” (Bioorg Med Chem Lett, 2019).

What was measured:
[1] = test system: Tyrosine-protein kinase ABL1 (Homo sapiens), P00519 [F317L]; assay: Binding affinity to human non-phosphorylated ABL1 F317L mutant (S229 to K512 residues) expressed in mammalian expression system assessed as residual binding level at 1 uM by Kinomescan method relative to control
[2] = biological target: RAC-beta serine/threonine-protein kinase (Homo sapiens) (UniProt P31751); assay: Binding affinity to wild-type human partial length AKT2 expressed in bacterial expression system assessed as residual binding level at 1 uM by Kinomescan method relative to control
[3] = biological target: Aurora kinase A (Homo sapiens) (UniProt O14965); assay: Binding affinity to wild-type human partial length AURKA (E122 to K401 residues) expressed in mammalian expression system assessed as residual binding level at 1 uM by Kinomescan method relative to control
[4] = biological target: Peripheral plasma membrane protein CASK (Homo sapiens) (UniProt O14936); assay: Binding affinity to wild-type human partial length CASK (M1 to H315 residues) expressed in mammalian expression system assessed as residual binding level at 1 uM by Kinomescan method relative to control
[5] = biological target: Citron Rho-interacting kinase (Homo sapiens) (UniProt O14578); assay: Binding affinity to wild-type human partial length CIT (M68 to E432 residues) expressed in bacterial expression system assessed as residual binding level at 1 uM by Kinomescan method relative to control
[6] = biological target: Casein kinase I isoform gamma-1 (Homo sapiens) (UniProt Q9HCP0); assay: Binding affinity to wild-type human partial length CSNK1G1 (T15 to S353 residues) expressed in bacterial expression system assessed as residual binding level at 1 uM by Kinomescan method relative to control
[7] = biological target: Casein kinase I isoform gamma-2 (Homo sapiens) (UniProt P78368); assay: Binding affinity to wild-type human full length CSNK1G2 (M1 to K415 residues) expressed in bacterial expression system assessed as residual binding level at 1 uM by Kinomescan method relative to control
[8] = biological target: Serine/threonine-protein kinase DCLK1 (Homo sapiens) (UniProt O15075); assay: Binding affinity to wild-type human partial length DCAMKL1 (L270 to A662 residues) expressed in mammalian expression system assessed as residual binding level at 1 uM by Kinomescan method relative to control
[9] = test system: Epidermal growth factor receptor (Homo sapiens), P00533 [UNDEFINED MUTATION]; assay: Binding affinity to human partial length EGFR S752-I759del mutant expressed in bacterial expression system assessed as residual binding level at 1 uM by Kinomescan method relative to control
[10] = biological target: Receptor tyrosine-protein kinase erbB-2 (Homo sapiens) (UniProt P04626); assay: Binding affinity to wild-type human partial length ERBB2 (K646 to V1225 residues) expressed in mammalian expression system assessed as residual binding level at 1 uM by Kinomescan method relative to control
[11] = biological target: Focal adhesion kinase 1 (Homo sapiens) (UniProt Q05397); assay: Binding affinity to wild-type human partial length FAK (D402 to R696 residues) expressed in bacterial expression system assessed as residual binding level at 1 uM by Kinomescan method relative to control
[12] = test system: Receptor-type tyrosine-protein kinase FLT3 (Homo sapiens), P36888 [D835H]; assay: Binding affinity to human partial length FLT3 D835H mutant (V592 to Y969 residues) expressed in bacterial expression system assessed as residual binding level at 1 uM by Kinomescan method relative to control
[13] = test system: Receptor-type tyrosine-protein kinase FLT3 (Homo sapiens), P36888 [K663Q]; assay: Binding affinity to human partial length FLT3 K663Q mutant (V592 to Y969 residues) expressed in bacterial expression system assessed as residual binding level at 1 uM by Kinomescan method relative to control
[14] = biological target: Homeodomain-interacting protein kinase 3 (Homo sapiens) (UniProt Q9H422); assay: Binding affinity to wild-type human partial length HIPK3 (M153 to N562 residues) expressed in mammalian expression system assessed as residual binding level at 1 uM by Kinomescan method relative to control
[15] = test system: Mast/stem cell growth factor receptor Kit (Homo sapiens), P10721 [V559D]; assay: Binding affinity to human partial length KIT V559D mutant (Y545 to D952 residues) expressed in bacterial expression system assessed as residual binding level at 1 uM by Kinomescan method relative to control
[16] = biological target: Mitogen-activated protein kinase kinase kinase 2 (Homo sapiens) (UniProt Q9Y2U5); assay: Binding affinity to wild-type human partial length MAP3K2 (S315 to H619 residues) expressed in mammalian expression system assessed as residual binding level at 1 uM by Kinomescan method relative to control
[17] = biological target: Dual specificity mitogen-activated protein kinase kinase 2 (Homo sapiens) (UniProt P36507); assay: Binding affinity to wild-type human full length MEK2 (M1 to V400 residues) expressed in mammalian expression system assessed as residual binding level at 1 uM by Kinomescan method relative to control
[18] = biological target: Serine/threonine-protein kinase 24 (Homo sapiens) (UniProt Q9Y6E0); assay: Binding affinity to wild-type human partial length MST3 (A30 to S311 residues) expressed in bacterial expression system assessed as residual binding level at 1 uM by Kinomescan method relative to control
[19] = biological target: Myosin light chain kinase, smooth muscle (Homo sapiens) (UniProt Q15746); assay: Binding affinity to wild-type human full length MYLK (M854 to E1845 residues) expressed in mammalian expression system assessed as residual binding level at 1 uM by Kinomescan method relative to control
[20] = biological target: Phosphatidylinositol 3-kinase C2 domain-containing subunit gamma (Homo sapiens) (UniProt O75747); assay: Binding affinity to wild-type human partial length PIK3C2G (M1 to I1446 residues) expressed in mammalian expression system assessed as residual binding level at 1 uM by Kinomescan method relative to control
[21] = biological target: Phosphatidylinositol 4,5-bisphosphate 3-kinase catalytic subunit gamma isoform (Homo sapiens) (UniProt P48736); assay: Binding affinity to wild-type human partial length PIK3CG (S144 to A1102 residues) expressed in mammalian expression system assessed as residual binding level at 1 uM by Kinomescan method relative to control
[22] = biological target: Serine/threonine-protein kinase RIO1 (Homo sapiens) (UniProt Q9BRS2); assay: Binding affinity to wild-type human full length RIOK1 (M1 to K568 residues) expressed in bacterial expression system assessed as residual binding level at 1 uM by Kinomescan method relative to control
[23] = biological target: TGF-beta receptor type-1 (Homo sapiens) (UniProt P36897); assay: Binding affinity to wild-type human partial length TGFBR1 (D179 to M503 residues) expressed in bacterial expression system assessed as residual binding level at 1 uM by Kinomescan method relative to control
[24] = biological target: Mitogen-activated protein kinase kinase kinase 19 (Homo sapiens) (UniProt Q56UN5); assay: Binding affinity to wild-type human partial length YSK4 (T1019 to H1328 residues) expressed in mammalian expression system assessed as residual binding level at 1 uM by Kinomescan method relative to control

Sequence of Citron Rho-interacting kinase (Homo sapiens) (O14578 whole entry, the tested form may be a part, canonical isoform): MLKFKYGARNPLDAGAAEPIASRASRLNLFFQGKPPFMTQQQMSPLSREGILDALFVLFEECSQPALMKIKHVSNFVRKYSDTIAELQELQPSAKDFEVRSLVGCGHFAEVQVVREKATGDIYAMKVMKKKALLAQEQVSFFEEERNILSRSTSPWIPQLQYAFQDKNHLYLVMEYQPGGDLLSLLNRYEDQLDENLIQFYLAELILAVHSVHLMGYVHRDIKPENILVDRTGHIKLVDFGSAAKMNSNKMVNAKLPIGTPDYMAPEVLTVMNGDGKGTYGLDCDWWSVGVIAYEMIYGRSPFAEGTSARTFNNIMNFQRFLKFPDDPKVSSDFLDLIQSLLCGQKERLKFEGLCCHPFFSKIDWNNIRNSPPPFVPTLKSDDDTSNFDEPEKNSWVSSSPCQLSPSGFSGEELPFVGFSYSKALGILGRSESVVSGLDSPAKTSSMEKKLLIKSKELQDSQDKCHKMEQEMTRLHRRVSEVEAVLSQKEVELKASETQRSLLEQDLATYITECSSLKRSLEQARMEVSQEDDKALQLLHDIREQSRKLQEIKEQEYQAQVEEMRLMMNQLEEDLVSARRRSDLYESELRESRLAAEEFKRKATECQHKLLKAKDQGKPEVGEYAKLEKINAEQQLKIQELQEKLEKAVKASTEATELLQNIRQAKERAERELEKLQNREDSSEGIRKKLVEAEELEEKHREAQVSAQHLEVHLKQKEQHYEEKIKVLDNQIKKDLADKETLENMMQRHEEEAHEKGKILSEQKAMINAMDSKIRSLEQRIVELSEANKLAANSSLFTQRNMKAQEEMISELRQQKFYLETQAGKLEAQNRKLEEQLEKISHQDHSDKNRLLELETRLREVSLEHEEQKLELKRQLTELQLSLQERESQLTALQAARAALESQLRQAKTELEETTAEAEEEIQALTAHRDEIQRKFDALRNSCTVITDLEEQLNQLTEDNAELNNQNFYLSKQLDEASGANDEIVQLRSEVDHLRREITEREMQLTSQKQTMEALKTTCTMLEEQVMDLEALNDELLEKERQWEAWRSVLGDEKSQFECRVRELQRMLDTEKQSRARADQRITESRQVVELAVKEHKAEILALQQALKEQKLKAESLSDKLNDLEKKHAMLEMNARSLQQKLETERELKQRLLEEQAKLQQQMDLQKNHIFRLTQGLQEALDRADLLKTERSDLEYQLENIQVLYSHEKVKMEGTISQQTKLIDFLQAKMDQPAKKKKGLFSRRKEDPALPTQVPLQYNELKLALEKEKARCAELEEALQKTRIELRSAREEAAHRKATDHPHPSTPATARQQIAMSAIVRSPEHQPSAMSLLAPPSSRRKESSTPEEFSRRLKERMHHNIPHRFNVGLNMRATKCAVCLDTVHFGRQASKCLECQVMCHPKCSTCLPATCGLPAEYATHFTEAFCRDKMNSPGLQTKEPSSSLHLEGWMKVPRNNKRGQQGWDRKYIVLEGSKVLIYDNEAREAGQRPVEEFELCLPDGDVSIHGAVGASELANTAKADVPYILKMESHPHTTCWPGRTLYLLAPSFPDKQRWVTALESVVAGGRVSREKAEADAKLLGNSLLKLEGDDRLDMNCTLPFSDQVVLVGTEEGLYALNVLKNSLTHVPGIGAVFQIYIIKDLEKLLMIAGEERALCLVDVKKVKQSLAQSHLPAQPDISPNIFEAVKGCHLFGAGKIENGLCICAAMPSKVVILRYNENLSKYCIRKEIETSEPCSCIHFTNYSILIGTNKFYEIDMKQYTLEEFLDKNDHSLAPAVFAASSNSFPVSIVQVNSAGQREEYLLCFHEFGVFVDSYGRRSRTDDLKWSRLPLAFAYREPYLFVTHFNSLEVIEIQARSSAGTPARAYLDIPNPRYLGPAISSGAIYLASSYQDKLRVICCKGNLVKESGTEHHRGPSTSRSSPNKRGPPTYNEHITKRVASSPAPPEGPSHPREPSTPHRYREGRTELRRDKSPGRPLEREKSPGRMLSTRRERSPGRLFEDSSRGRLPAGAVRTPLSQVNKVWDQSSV
Sequence of Serine/threonine-protein kinase RIO1 (Homo sapiens) (Q9BRS2 whole entry, the tested form may be a part): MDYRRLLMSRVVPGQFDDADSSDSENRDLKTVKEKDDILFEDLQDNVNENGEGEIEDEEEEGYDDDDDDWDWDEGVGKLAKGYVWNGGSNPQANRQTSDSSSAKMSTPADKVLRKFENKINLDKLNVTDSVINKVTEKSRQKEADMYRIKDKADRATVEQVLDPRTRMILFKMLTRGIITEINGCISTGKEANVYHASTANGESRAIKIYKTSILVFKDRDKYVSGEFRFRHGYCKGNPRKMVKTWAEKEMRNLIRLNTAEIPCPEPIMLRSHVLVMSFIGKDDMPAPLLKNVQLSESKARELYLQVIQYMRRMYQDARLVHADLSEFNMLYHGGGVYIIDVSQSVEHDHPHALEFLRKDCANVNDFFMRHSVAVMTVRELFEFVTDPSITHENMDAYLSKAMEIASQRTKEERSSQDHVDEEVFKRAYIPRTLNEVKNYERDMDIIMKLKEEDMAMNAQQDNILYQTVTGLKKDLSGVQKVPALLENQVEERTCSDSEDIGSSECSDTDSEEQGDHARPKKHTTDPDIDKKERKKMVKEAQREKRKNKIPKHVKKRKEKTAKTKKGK
Sequence of Peripheral plasma membrane protein CASK (Homo sapiens) (O14936 whole entry, the tested form may be a part): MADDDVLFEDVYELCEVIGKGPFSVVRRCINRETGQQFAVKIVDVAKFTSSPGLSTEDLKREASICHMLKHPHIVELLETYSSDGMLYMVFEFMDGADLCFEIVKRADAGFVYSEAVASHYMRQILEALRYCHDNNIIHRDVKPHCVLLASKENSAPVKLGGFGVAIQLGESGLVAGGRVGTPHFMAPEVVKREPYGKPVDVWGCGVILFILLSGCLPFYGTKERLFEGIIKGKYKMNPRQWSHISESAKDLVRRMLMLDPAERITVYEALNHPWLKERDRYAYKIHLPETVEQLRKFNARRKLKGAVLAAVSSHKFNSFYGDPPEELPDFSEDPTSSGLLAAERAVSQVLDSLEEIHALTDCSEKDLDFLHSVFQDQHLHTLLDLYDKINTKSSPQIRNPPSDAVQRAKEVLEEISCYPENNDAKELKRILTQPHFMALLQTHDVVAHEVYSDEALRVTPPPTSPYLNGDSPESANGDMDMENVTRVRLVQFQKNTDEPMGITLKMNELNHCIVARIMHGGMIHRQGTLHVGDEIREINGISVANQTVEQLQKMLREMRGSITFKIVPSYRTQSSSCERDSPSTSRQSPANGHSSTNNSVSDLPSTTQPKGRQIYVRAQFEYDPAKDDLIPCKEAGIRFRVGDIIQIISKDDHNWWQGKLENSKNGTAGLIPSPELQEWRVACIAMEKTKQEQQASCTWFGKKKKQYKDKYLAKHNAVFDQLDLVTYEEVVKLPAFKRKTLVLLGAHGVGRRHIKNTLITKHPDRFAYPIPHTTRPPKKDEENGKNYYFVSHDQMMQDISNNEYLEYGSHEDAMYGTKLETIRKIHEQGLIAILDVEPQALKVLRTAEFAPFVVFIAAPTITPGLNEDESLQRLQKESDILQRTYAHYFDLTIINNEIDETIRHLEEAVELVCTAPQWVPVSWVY
Sequence of Serine/threonine-protein kinase 24 (Homo sapiens) (Q9Y6E0 whole entry, looked up, the tested form may be a part): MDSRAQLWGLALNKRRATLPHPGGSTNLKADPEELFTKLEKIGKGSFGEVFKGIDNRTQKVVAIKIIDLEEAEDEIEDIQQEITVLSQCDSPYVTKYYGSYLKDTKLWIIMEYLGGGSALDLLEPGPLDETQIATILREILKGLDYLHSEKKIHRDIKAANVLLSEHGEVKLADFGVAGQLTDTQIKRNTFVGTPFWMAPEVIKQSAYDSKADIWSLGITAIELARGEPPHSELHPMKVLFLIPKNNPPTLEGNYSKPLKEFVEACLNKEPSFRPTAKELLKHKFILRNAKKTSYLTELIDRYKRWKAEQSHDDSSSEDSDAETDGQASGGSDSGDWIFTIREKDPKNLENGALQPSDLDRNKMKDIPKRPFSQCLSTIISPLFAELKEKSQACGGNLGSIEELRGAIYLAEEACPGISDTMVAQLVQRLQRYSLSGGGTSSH
Sequence of Casein kinase I isoform gamma-2 (Homo sapiens) (P78368 whole entry, looked up, the tested form may be a part, canonical isoform): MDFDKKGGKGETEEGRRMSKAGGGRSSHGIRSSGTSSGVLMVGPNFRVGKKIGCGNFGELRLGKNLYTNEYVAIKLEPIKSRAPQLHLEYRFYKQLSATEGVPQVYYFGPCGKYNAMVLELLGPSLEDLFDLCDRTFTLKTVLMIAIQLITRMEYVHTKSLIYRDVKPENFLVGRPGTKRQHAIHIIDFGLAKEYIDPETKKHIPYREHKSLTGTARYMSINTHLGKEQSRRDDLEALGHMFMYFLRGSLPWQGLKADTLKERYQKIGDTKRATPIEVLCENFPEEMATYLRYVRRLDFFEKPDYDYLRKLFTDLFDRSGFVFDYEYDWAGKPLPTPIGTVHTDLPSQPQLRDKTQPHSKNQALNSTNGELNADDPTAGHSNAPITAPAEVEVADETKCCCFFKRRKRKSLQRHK
Sequence of Mitogen-activated protein kinase kinase kinase 2 (Homo sapiens) (Q9Y2U5 whole entry, the tested form may be a part): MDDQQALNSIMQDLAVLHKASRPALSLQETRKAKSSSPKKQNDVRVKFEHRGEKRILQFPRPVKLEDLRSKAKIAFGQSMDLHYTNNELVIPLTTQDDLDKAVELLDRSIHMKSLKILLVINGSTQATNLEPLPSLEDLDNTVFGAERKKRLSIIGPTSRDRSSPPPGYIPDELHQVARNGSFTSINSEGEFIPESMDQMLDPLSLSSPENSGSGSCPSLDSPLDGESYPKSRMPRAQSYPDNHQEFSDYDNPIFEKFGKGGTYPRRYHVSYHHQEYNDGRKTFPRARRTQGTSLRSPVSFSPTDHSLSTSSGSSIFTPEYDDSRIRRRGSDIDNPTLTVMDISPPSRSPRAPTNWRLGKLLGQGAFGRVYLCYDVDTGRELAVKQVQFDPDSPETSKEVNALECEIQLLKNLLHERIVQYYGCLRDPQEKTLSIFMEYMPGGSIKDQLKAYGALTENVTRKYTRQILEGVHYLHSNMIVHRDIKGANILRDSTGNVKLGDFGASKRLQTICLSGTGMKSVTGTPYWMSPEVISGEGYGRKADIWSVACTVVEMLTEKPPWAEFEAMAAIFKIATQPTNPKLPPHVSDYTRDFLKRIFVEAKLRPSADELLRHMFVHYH

CC(C)Nc1sc(C(=O)c2ccc(Cl)s2)c(N)c1C#N
Activity [1]: 100% | Activity [2]: 93% | Activity [3]: 100% | Activity [4]: 100% | Activity [5]: 72% | Activity [6]: 95% | Activity [7]: 74% | Activity [8]: 100% | Activity [9]: 75% | Activity [10]: 76% | Activity [11]: 74% | Activity [12]: 60% | Activity [13]: 96% | Activity [14]: 89% | Activity [15]: 59% | Activity [16]: 98% | Activity [17]: 100% | Activity [18]: 99% | Activity [19]: 71% | Activity [20]: 84% | Activity [21]: 100% | Activity [22]: 74% | Activity [23]: 100% | Activity [24]: 100%
